# Laboratory results reported in patent publication US6124115A, “Production and use of isolated type 5 17β-hydroxysteroid dehydrogenase” (Endorecherche Inc., priority 1995, dated 2000).
# Target: T1, human type 5 17β-HSD (Homo sapiens, UniProt P42330)
# T1 construct: encodes a protein having 323 amino acids with a calculated molecular weight of 36,844 daltons; expressed in transfected cells; host or cells: human embryonal kidney 293 cells (ATCC CRL 1573), transient transfection with pCMV vector
# T1 sequence (P42330 1-323 H5Q): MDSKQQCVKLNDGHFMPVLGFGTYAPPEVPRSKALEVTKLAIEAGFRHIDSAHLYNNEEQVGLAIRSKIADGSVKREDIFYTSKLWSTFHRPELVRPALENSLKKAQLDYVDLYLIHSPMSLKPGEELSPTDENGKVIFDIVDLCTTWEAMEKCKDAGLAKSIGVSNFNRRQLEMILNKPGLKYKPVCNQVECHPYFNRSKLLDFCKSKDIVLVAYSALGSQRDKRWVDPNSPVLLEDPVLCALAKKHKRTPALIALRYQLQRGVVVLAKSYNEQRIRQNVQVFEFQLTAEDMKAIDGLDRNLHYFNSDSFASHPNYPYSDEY
# Assay: Assay of enzymatic activity (substrate specificity) in 293 cells transfected with human type 5 17β-HSD
# Type: cell-based
# Details: 0.1 μM 14C-labeled substrate, 1 hour incubation, transfected embryonal kidney (293) cells, FIG. 1A
# Procedure: The concentration of each substrate was 0.1 μM. […] The substrates, progesterone (P) and Δ^4 -dione, were added at a concentration of 0.1 μM;
# The vectors were transfected using the calcium phosphate procedure described by Kingston, R. E., In: Current Protocols in Molecular Biology, Ausubel et al. eds., pp. 9.1.1-9.1.9, John Wiley & Sons, N.Y. (1987) and used 1 to 10 μg of recombinant plasmid DNA per 10^6 cells. The total amount of DNA is kept at 10 μg of plasmid DNA per 10^6 cells by completing with pCMV plasmid without insert. The cells were initially plated at 10^4 cells/cm^2 in Falcon® culture flasks and grown in Dulbecco's modified Eagle's medium containing 10% (vol/vol) fetal bovine serum (hyclone, Logan, Utah) under a humidified atmosphere of air/CO^2 (95%/5%) at 37° C. and supplemented with 2 mM L-glutamine, 1 mM sodium pyruvate, 100 IU penicillin/ml, and 100 μbg streptomycin sulfate/ml.
# See also Lachance et al., J. Biol. Chem., 265:20469-20475 (1990). […] After incubation for 1 hour, the steroids were extracted twice with 2 ml of ether. The organic phase was pooled and evaporated to dryness. The steroids were solubilized in 50 μl of dichloromethane, applied to a Silica gel 60 thin layer chromatography (TLC) plate (Merck, Darmstad, Germany) and then separated by migration in the toluene-acetone (4:1) solvent system (Luu-The, V. et al., J. Invest. Dennatol., 102:221-226 (1994) which is herein incorporated by reference).
# As described above, the enzymatic activity of the type 5 17β-HSD was evaluated by transfecting 293 cells with vectors which included the gene encoding human type 5 17β-HSD.
structure (smiles),measurement,value
"C[C@]12CCC(=O)C[C@@H]1CC[C@@H]1[C@@H]2CC[C@]2(C)[C@@H](O)CC[C@@H]12 [DHT, dihydrotestosterone]","3α-HSD activity (transformation of DHT to 5α-androstane-3α,17β-diol)",negligible
"C[C@]12CC[C@@H]3c4ccc(O)cc4CC[C@H]3[C@@H]1CC[C@@H]2O [E2, estradiol]",ability of the enzyme to transform E1 and E2,negligible
CC(=O)[C@H]1CC[C@H]2[C@@H]3CCC4=CC(=O)CC[C@]4(C)[C@H]3CC[C@]12C [progesterone],reductive 20α-HSD activity (progesterone transformed to 20α-OH-P),high
"C[C@]12CCC(=O)C=C1CC[C@@H]1[C@@H]2CC[C@]2(C)C(=O)CC[C@@H]12 [Δ^4dione, 4-androstene-3,17-dione]",17β-HSD activity (Δ4-dione converted to testosterone),high
